Data on two compounds can be found in article PMC8400120, “Synthesis of Novel Methyl 7-[(Hetero)arylamino]thieno[2,3-b]pyrazine-6-carboxylates and Antitumor Activity Evaluation: Effects in Human Tumor Cells Growth, Cell Cycle Analysis, Apoptosis and Toxicity in Non-Tumor Cells” (Molecules, 2021).

Some results are limits rather than exact numbers.

Data set [1] has as its system gastric adenocarcinoma (AGS). Nature of the data set: SRB cell growth inhibition assay, AGS. Conditions: for GI50: AGS, SRB assay, 48 h incubation, mean ± SD. In kind it is cell-based, human. The method, then: (§1) The antitumor potential of the di(hetero)arylamines 2a–2o was evaluated using the sulforhodamine B (SRB) assay to establish some structure–activity relationships. Four human tumor cell lines (acquired from Leibniz-Institut DSMZ) were used: gastric adenocarcinoma (AGS), colorectal adenocarcinoma (CaCo-2), breast adenocarcinoma (MCF7), and non-small-cell lung cancer (NCI-H460), as well as a non-tumor cell line from African green monkey kidney (Vero) to evaluate the toxicity of the compounds. Ellipticine was used as a positive control, and the results are presented in GI50 values (µM) (Table 2).
(§2) Each cell line was prepared in 96-well plates, at the required density (1.0 × 10^4 cells/well) and incubated for 24 h to achieve cell attachment. The solutions of the compounds were applied and incubated for another 48 h. GI50 values (µM) corresponding to the compound concentration that inhibited 50% of cell growth were determined using the sulforhodamine B assay. Two separate tests were carried out for each compound, in duplicate, with the effects expressed as mean values and standard deviation (SD). Ellipticine was used as a positive control.
In general terms: Sulforhodamine B stains cellular protein and so reports cell mass.

The subject of data set [2] is colorectal adenocarcinoma (CaCo-2). The data set can be described thus: SRB cell growth inhibition assay, CaCo-2. Conditions: CaCo-2, SRB assay, 48 h incubation, mean ± SD. It counts as cell-based, human. The procedure:
as §1, §2

Data set [3] deals with AGS cells. Nature of the data set: Flow cytometric cell cycle analysis (PI staining). In kind it is cell-based, human. To be noted: at GI50 concentration, 72 h, vs blank. The method, then: This assay is based on the measurement of the DNA content in the PI-labeled nuclei. […] Cell cycle analysis was performed using propidium iodide (PI) staining and flow cytometry. This assay is established on the measurement of the DNA content of nuclei labeled with PI. Following this, the cells were staining according to the protocol PI/RNASE Solution (Immunostep, Spain, Salamanca). The harvested cells corresponding to 2 × 10^5 to 1 × 10^6 cells, were centrifuged for 5 min at 300g, and the supernatant was removed. The cells were fixed and added to 200 µL of 70% ethanol and left in the ethanol at 4 °C for 30 min. Following this, the cells were washed once in 2 mL phosphate-buffered saline (PBS) and centrifuged for 5 min at 300g and resuspended in 500 μL of PI solution (PI/RNASE) and incubated in the dark, at room temperature, for 15 min. Cell cycle phase distribution was evaluated using an Accuri C6 flow cytometer (BD Biosciences, San Jose, CA, USA). The DNA content of at least 20,000 cells was counted per sample, and the percentage of cells in different phases (G0/G1, S, and G2/M phases) of the cell cycle was evaluated using BD Accuri C6 software (BD Biosciences, San Jose, CA, USA). Ellipticine was used as a positive control at its GI50 concentration for AGS cell line.

A short description of data set [4]: SRB cell growth inhibition assay, non-tumor Vero cells (toxicity). In kind it is cell-based. Conditions: African green monkey, Vero cells (non-tumor kidney cell line), 48 h incubation, mean ± SD. The method, then:
as §1, §2

The subject of data set [5] is non-small-cell lung carcinoma (NCI-H460). Nature of the data set: SRB cell growth inhibition assay, NCI-H460. In kind it is cell-based, human. To be noted: Homo sapiens, NCI-H460, 48 h, 48 h incubation, mean ± SD. The procedure: as §1, §2
The test system of data set [6] is AGS cells. Nature of the data set: Flow cytometric apoptosis detection (FITC Annexin V/PI). It counts as cell-based, human. Conditions: at GI50 concentration, 72 h; for Cell death in apoptosis assay: vs blank. The procedure: Apoptosis induction was performed using the Fluorescein Isothiocyanate (FITC) Annexin V Apoptosis Kit (BD Biosciences, San Jose, CA, USA), and measured by flow cytometry for compounds 2b, 2f, and 2g (Figure 3). FITC Annexin V staining was used to determine the percentage of cells within a population that are actively undergoing apoptosis. […] Apoptosis detection was performed using the Fluorescein Isothiocyanate (FITC) Annexin V Apoptosis Kit (BD Biosciences, San Jose, CA, USA) and flow cytometry. FITC Annexin V staining is used to determine the percentage of cells within a population that are actively undergoing apoptosis. The cells were washed twice with PBS and resuspended cells in 1× Binding Buffer (10 mM HEPES/NaOH, pH 7.4, 140 mM NaCl, 2.5 mM CaCl2) at a concentration of 1 × 10^6 cells/mL. Following this, 100 μL of the solution (1 × 10^5 cells) was transferred to a 5 mL culture tube and 5 μL of FITC Annexin V (BD Biosciences, San Jose, CA, USA) and 5 μL of PI (BD Biosciences, San Jose, CA, USA) were added to each tube, and they were incubated in the dark, at room temperature, for 15 min. Finally, 400 μL of 1× Binding Buffer was added to each tube. Next, 30,000 cells were acquired using an Accuri C6 flow cytometer (BD Biosciences, San Jose, CA, USA), and the percentage of cell distribution was evaluated with Accuri C6 software (BD Biosciences, San Jose, CA, USA). Ellipticine was used as a positive control at its GI50 concentration for AGS cell line.
On the technique in general: A flow cytometer gives signals particle by particle.

A further data set relates to breast carcinoma (MCF7). Nature of the data set: SRB cell growth inhibition assay, MCF7. To be noted: Homo sapiens, MCF7, 48 h, MCF-7, SRB assay, 48 h incubation, mean ± SD. It counts as cell-based, human. The method, then:
as §1, §2

Take `COC(=O)c1sc2nccnc2c1Nc1ccccc1OC` [2b, Methyl 7-[(2-Methoxyphenyl)amino]thieno[2,3-b]pyrazine-6-carboxylate]: the GI50 in data set [1] (Homo sapiens, 48 h) turned out to be 9.8 ± 0.2 µM; in data set [2] (Homo sapiens, Caco-2, 48 h), 36 ± 2 µM; in data set [5], 45 ± 1 µM; with breast carcinoma (MCF7), 127 ± 9 µM. Moreover, the “Selectivity for AGS among the cell lines used” value in data set [1] (comparison of GI50 values) was “selective for this cell line”. Also, the “Effect on G0/G1 phases of AGS cell cycle” value in the data set on AGS cells [3] is on record as “cell cycle arrest in G0/G1 phases, although this result was not statistically significant”. Besides, the “Effect on G2/M phase of AGS cell cycle” value in the data set on AGS cells [3] is “did not present any difference in the percentage of cells compared to the blank”. Further, in data set [4], the GI50 at 48 h was found to be 21.29 ± 0.03 µM. In the data set on AGS cells [6], the “High number of cells in apoptosis (expected from GI50 values)” value is on record as “not verified”. Besides, the “Cell death in apoptosis assay” value in the data set with AGS cells [6] is recorded as “moderated cell death compared to the blank”.

Regarding `COC(=O)c1sc2nccnc2c1Nc1ccc(OC)c(OC)c1` [2f, Methyl 7-[(3,4-Dimethoxyphenyl)amino]thieno[2,3-b]pyrazine-6-carboxylate], the GI50 in data set [1] is 9.2 ± 0.2 µM; in data set [1] (Homo sapiens, 48 h) it was < 10 µM; in data set [2] it was 8 ± 1 µM; in data set [2] (Homo sapiens, Caco-2, 48 h) it was < 10 µM; in data set [5] it was 41 ± 3 µM; in the data set on breast carcinoma (MCF7), 87 ± 1 µM. In addition, in the data set with AGS cells [3], the “Effect on G0/G1 phases of AGS cell cycle” value is reported as “cell cycle arrest in G0/G1 phases, although this result was not statistically significant”. For the same compound, the “Effect on G2/M phase of AGS cell cycle” value in the data set with AGS cells [3] is listed as “did not present any difference in the percentage of cells compared to the blank”. Moreover, the GI50 at 48 h in data set [4] came out at 53 ± 3 µM. Also, the “High number of cells in apoptosis (expected from GI50 values)” value in the data set with AGS cells [6] is listed as “not verified”. Further, the “Cell death in apoptosis assay” value in the data set with AGS cells [6] is “moderated cell death compared to the blank”.

As usually defined, the GI50 is the concentration at which growth is held to half of that of the control. Read a high GI50 as lower sensitivity of the cells.
